pEC50: −log10 of the molar value. Like-named read-outs stand apart in the source and are kept apart here.
Assays:
[1] = biological target: T1, 5-HT1A receptor (Homo sapiens, UniProt P08908); conditions: for voltage dependence of potency: −80 mV versus +40 mV
T1 sequence (P08908 1-422): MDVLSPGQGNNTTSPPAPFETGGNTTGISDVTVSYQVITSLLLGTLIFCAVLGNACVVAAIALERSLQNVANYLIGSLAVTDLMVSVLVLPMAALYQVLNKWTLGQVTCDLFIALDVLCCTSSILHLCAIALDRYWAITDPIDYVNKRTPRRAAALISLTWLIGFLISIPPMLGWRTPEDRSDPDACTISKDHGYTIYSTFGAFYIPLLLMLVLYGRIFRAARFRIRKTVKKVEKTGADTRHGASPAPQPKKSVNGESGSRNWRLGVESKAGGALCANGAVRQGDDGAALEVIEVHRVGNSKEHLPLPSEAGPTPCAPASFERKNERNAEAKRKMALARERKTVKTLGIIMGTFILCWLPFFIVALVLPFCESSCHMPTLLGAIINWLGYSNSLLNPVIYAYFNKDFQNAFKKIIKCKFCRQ

[2] = biological target: T1, 5-HT1A receptor; assay: cell-based; design: Emax: dose or concentration left out as unconfirmed; conditions: for pEC50: EC50 (activation of receptor-mediated GIRK current), wt receptor, 72 mM Na+ solution

voltage dependence of potency [1]	Emax ([2]; read-out: maximal response relative to the maximal response produced by 5-HT) [%]	pEC50 ([2]; holding potential +40 mV)	pEC50 ([2]; holding potential −80 mV)	Emax ([2]; read-out: maximal response relative to the maximal response evoked by 5-HT at the same oocytes) [%]	effect of removal of extracellular Na+ on maximal I5-HT ([1]; 5 μM 5-HT, Na+-free versus 72 mM Na+)	decrease of potency by depolarization ([1]; +40 mV versus −80 mV, 72 mM Na+)	SMILES
not voltage dependent	~42	–	–	–	–	–	O=C1CC2(CCCC2)CC(=O)N1CCCCN1CCN(c2ncccn2)CC1 [buspirone]
voltage-dependent	–	6.03	6.71	~55	–	–	O=C1[C@@H]2[C@H]3CC[C@H](C3)[C@@H]2C(=O)N1CCCCN1CCN(c2ncccn2)CC1 [tandospirone]
–	–	–	–	–	did not affect the maximal current	more than 20 fold	NCCc1c[nH]c2ccc(O)cc12 [5-HT, 5-hydroxytryptamine]
